Measured values published in patent US20230002359A1, “PESTICIDALLY ACTIVE FUSED BICYCLIC HETEROAROMATIC COMPOUNDS” (priority 2019, published 2023).
Read-outs that look alike come from different tables or passages of the source.

Columns and labels:
Format in all cases: in vivo
[1] = system: Euschistus heros (Neotropical Brown Stink Bug); test: Example B2: Euschistus heros (neotropical brown stink bug), soybean leaves sprayed, N2 nymphs; settings: 120 h, read-out: control in at least one of the two categories (mortality or growth inhibition)
Protocol: Soybean leaves on agar in 24-well microtiter plates were sprayed with aqueous test solutions prepared from 10′000 ppm DMSO stock solutions. After drying the leaves were infested with N2 nymphs. The samples were assessed for mortality and growth inhibition in comparison to untreated samples 5 days after infestation.

[2] = system: Spodoptera littoralis (Egyptian Cotton Leaf Worm); test: Example B7: Spodoptera littoralis (Egyptian cotton leaf worm), cotton leaf discs sprayed, L1 larvae; settings: foliar, 72 h, read-out: control in at least one of the three categories (mortality, anti-feedant effect, or growth inhibition)
Outline: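 Cotton leaf discs on agar were sprayed with aqueous test solutions made from 10′000 ppm DMSO stocks, dried, then infested with five L1 larvae. Mortality, anti-feeding effect and growth inhibition were scored against untreated discs 3 days after infestation; control means any category exceeds untreated.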

[3] = system: Diabrotica Balteata (Corn Root Worm); test: Example B1: Diabrotica balteata (corn root worm), maize sprouts sprayed, L2 larvae; settings: 96 h, read-out: control in at least one of the two categories (mortality or growth inhibition)
Outline: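 Spray test: maize sprouts on agar, aqueous dilutions of 10′000 ppm DMSO stock; after drying, 6–10 L2 larvae/well. Read-out at 4 d post-infestation: mortality and growth inhibition vs untreated.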

[4] = system: Plutella xylostella (Diamond Back Moth); test: Example B4: Plutella xylostella (diamond back moth), artificial diet, eggs, 24-well; settings: 192 h, read-out: control in at least one of the two categories (mortality or growth inhibition)
Protocol: 24-well microtiter plates with artificial diet were treated with aqueous test solutions prepared from 10′000 ppm DMSO stock solutions by pipetting. After drying, Plutella eggs were pipetted through a plastic stencil onto a gel blotting paper and the plate was closed with it. The samples were assessed for mortality and growth inhibition in comparison to untreated samples 8 days after infestation.

[5] = system: Myzus persicae (Green Peach Aphid); test: Example B6: Myzus persicae (green peach aphid) intrinsic activity, sucrose solution; settings: 120 h
Outline: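 Mortality was read 5 days after infestation. Aphids on pea seedlings fed through a stretched Parafilm membrane on inverted 24-well plates containing sucrose solution mixed with test compound, which was diluted from 10′000 ppm DMSO stock.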

[6] = system: Chilo suppressalis (Striped Rice Stemborer); test: Example B3: Chilo suppressalis (striped rice stemborer), artificial diet, L2 larvae; settings: 144 h, read-out: control in at least one of the three categories (mortality, anti-feedant effect, or growth inhibition)
Outline: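 First, artificial diet was treated with aqueous solutions prepared from 10'000 ppm DMSO stocks; second, after drying, L2 larvae (6-8/well) were added; third, effects were assessed at 6 days against untreated controls, counting control when any of three categories was higher.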

[7] = system: Myzus persicae (Green Peach Aphid); test: Example B5: Myzus persicae (green peach aphid) feeding/contact activity, sunflower leaf discs; settings: foliar, 144 h, application rate of 200 ppm, 6 days after infestation
Protocol: Sunflower leaf discs were placed onto agar in a 24-well microtiter plate and sprayed with aqueous test solutions prepared from 10′000 ppm DMSO stock solutions. After drying, the leaf discs were infested with an aphid population of mixed ages. The samples were assessed for mortality 6 days after infestation.

[8] = application rate of 200 ppm, 5 days after infestation, N2 nymphs
[9] = application rate of 200 ppm, 3 days after infestation, L1 larvae
[10] = application rate of 200 ppm, 4 days after infestation, L2 larvae
[11] = application rate of 200 ppm, 8 days after infestation, eggs
[12] = test rate of 12 ppm, 5 days after infestation, intrinsic activity, read-out: mortality
[13] = application rate of 200 ppm, 6 days after infestation, L2 larvae

CC(Nc1ncnc2c(C(F)(F)F)cc(C(F)(F)F)cc12)c1ncnn1-c1ncccn1 (stereo not drawn) [P.16, N-[1-(2-pyrimidin-2-yl-1,2,4-triazol-3-yl)ethyl]-6,8-bis(trifluoromethyl)quinazolin-4-amine]
≥ 80%: percent control (mortality or growth inhibition) at 200 ppm [1, 8] | percent control (mortality, anti-feedant effect or growth inhibition) at 200 ppm [2, 9] | percent control (mortality or growth inhibition) at 200 ppm [3, 10] | percent control (mortality or growth inhibition) at 200 ppm [4, 11] | mortality at 12 ppm [5, 12] | percent control (mortality, anti-feedant effect or growth inhibition) at 200 ppm [6, 13]

CC(Nc1nc(C(F)(F)F)nc2c(C(F)(F)F)cc(C(F)(F)F)cc12)c1ncnn1-c1ccc(C#N)cn1 (stereo not drawn) [P.59, 6-[5-[1-[[2,6,8-tris(trifluoromethyl)quina-zolin-4-yl]amino]ethyl]-1,2,4-triazol-1-yl]pyridine-3-carbonitrile]
≥ 80%: mortality at 200 ppm [7]

C[C@@H](c1ncnn1-c1ccc(C#N)cn1)N(C)c1ncnc2c(C(F)(F)F)cc(I)cc12 [P.184, 6-[5-[(1S)-1-[[6-iodo-8-(trifluoromethyl)quinazolin-4-yl]-methyl-amino]ethyl]-1,2,4-triazol-1-yl]pyridine-3-carbonitrile]
≥ 80%: mortality at 200 ppm [7] | percent control (mortality or growth inhibition) at 200 ppm [3, 10] | percent control (mortality or growth inhibition) at 200 ppm [4, 11] | mortality at 12 ppm [5, 12] | percent control (mortality, anti-feedant effect or growth inhibition) at 200 ppm [6, 13]

COCN(c1ncnc2c(C(F)(F)F)cc(C(F)(F)F)cc12)[C@@H](C)c1ncnn1-c1ccc(C#N)cn1 [P.169, 6-[5-[(1S)-1-[[6,8-bis(trifluoromethyl)quina-zolin-4-yl]-(methoxymethyl)amino]ethyl]-1,2,4-triazol-1-yl]pyridine-3-carbonitrile]
≥ 80%: percent control (mortality or growth inhibition) at 200 ppm [1, 8] | percent control (mortality, anti-feedant effect or growth inhibition) at 200 ppm [2, 9] | percent control (mortality or growth inhibition) at 200 ppm [3, 10] | percent control (mortality or growth inhibition) at 200 ppm [4, 11] | mortality at 12 ppm [5, 12] | percent control (mortality, anti-feedant effect or growth inhibition) at 200 ppm [6, 13]

CC(c1ncnn1-c1ncccn1)N(C)c1ncnc2c(Cl)c(F)c(Cl)cc12 (stereo not drawn) [P.165, 6,8-dichloro-7-fluoro-N-methyl-N-[1-(2-pyrimidin-2-yl-1,2,4-triazol-3-yl)ethyl]quinazolin-4-amine]
≥ 80%: mortality at 200 ppm [7]

C[C@@H](c1ncnn1-c1ncccn1)N(C)c1ncnc2c(C(F)(F)F)cc(S(=O)(=O)C(F)(F)F)cc12 [P.262, N-methyl-N-[(1S)-1-(2-pyrimidin-2-yl-1,2,4-triazol-3-yl)ethyl]-8-(trifluoromethyl)-6-(trifluoromethylsulfonyl) quinazolin-4-amine]
≥ 80%: percent control (mortality or growth inhibition) at 200 ppm [1, 8] | percent control (mortality, anti-feedant effect or growth inhibition) at 200 ppm [2, 9] | percent control (mortality or growth inhibition) at 200 ppm [3, 10] | percent control (mortality or growth inhibition) at 200 ppm [4, 11] | mortality at 12 ppm [5, 12] | percent control (mortality, anti-feedant effect or growth inhibition) at 200 ppm [6, 13]

C[C@@H](c1ncnn1-c1ncccn1)N(CC1CC1)c1ncnc2c(Cl)cc(C(F)(F)F)cc12 [P.272, 8-chloro-N-(cyclopropylmethyl)-N-[(1S)-1-(2-pyrimidin-2-yl-1,2,4-triazol-3-yl)ethyl]-6-(trifluoromethyl)quinazolin-4-amine]
≥ 80%: percent control (mortality or growth inhibition) at 200 ppm [1, 8] | percent control (mortality, anti-feedant effect or growth inhibition) at 200 ppm [2, 9] | percent control (mortality or growth inhibition) at 200 ppm [3, 10] | percent control (mortality or growth inhibition) at 200 ppm [4, 11] | mortality at 12 ppm [5, 12] | percent control (mortality, anti-feedant effect or growth inhibition) at 200 ppm [6, 13]

C[C@H](Nc1ncnc2c(I)cc(C(F)(F)F)cc12)c1ncnn1-c1ccc(C#N)cn1 [P.263, 6-[5-[(1S)-1-[[8-iodo-6-(trifluoromethyl)quinazolin-4-yl]amino]ethyl]-1,2,4-triazol-1-yl]pyridine-3-carbonitrile]
≥ 80%: percent control (mortality or growth inhibition) at 200 ppm [1, 8] | percent control (mortality, anti-feedant effect or growth inhibition) at 200 ppm [2, 9] | percent control (mortality or growth inhibition) at 200 ppm [3, 10] | percent control (mortality or growth inhibition) at 200 ppm [4, 11] | mortality at 12 ppm [5, 12] | percent control (mortality, anti-feedant effect or growth inhibition) at 200 ppm [6, 13]

CC(c1ncnn1-c1ccc(C#N)cn1)N(C)c1ncnc2c(Br)cc(C(F)(F)F)cc12 (stereo not drawn) [P.266, 6-[5-[1-[[8-bromo-6-(trifluoromethyl)quinazolin-4-yl]-methyl-amino]ethyl]-1,2,4-triazol-1-yl]pyridine-3-carbonitrile]
≥ 80%: percent control (mortality or growth inhibition) at 200 ppm [1, 8] | percent control (mortality, anti-feedant effect or growth inhibition) at 200 ppm [2, 9] | percent control (mortality or growth inhibition) at 200 ppm [3, 10] | percent control (mortality or growth inhibition) at 200 ppm [4, 11] | mortality at 12 ppm [5, 12] | percent control (mortality, anti-feedant effect or growth inhibition) at 200 ppm [6, 13]

C[C@@H](c1ncnn1-c1ncccn1)N(C)c1ncnc2c(C(F)(F)F)cc(C(=O)C3CC3)cc12 [P.82, cyclopropyl-[4-[methyl-[(1S)-1-(2-pyrimidin-2-yl-1,2,4-triazol-3-yl)ethyl]amino]-8-(trifluoromethyl)quinazolin-6-yl]methanone]
≥ 80%: percent control (mortality or growth inhibition) at 200 ppm [1, 8] | percent control (mortality or growth inhibition) at 200 ppm [3, 10] | percent control (mortality or growth inhibition) at 200 ppm [4, 11] | mortality at 12 ppm [5, 12] | percent control (mortality, anti-feedant effect or growth inhibition) at 200 ppm [6, 13]

CC(Nc1ncnc2c(C(F)(F)F)cc(OC(F)(F)F)cc12)c1ncnn1-c1ccc(C#N)cn1 (stereo not drawn) [P.220, 6-[5-[1-[[6-(trifluoromethoxy)-8-(trifluoromethyl)quinazolin-4-yl]amino]ethyl]-1,2,4-triazol-1-yl]pyridine-3-carbonitrile]
≥ 80%: percent control (mortality or growth inhibition) at 200 ppm [1, 8] | percent control (mortality, anti-feedant effect or growth inhibition) at 200 ppm [2, 9] | percent control (mortality or growth inhibition) at 200 ppm [3, 10] | percent control (mortality or growth inhibition) at 200 ppm [4, 11] | mortality at 12 ppm [5, 12] | percent control (mortality, anti-feedant effect or growth inhibition) at 200 ppm [6, 13]

CC(c1ncnn1-c1ccc(C#N)cn1)N(C(=O)OCc1ccccc1)c1ncnc2c(C(F)(F)F)cc(C(F)(F)F)cc12 (stereo not drawn) [P.10, benzyl N-[6,8-bis(trifluoromethyl)quina-zolin-4-yl]-N-[1-[2-(5-cyano-2-pyridyl)-1,2,4-triazol-3-yl]ethyl]carbamate]
≥ 80%: percent control (mortality or growth inhibition) at 200 ppm [1] | percent control (mortality, anti-feedant effect or growth inhibition) at 200 ppm [2] | percent control (mortality or growth inhibition) at 200 ppm [3] | percent control (mortality or growth inhibition) at 200 ppm [4] | mortality at 12 ppm [5] | percent control (mortality, anti-feedant effect or growth inhibition) at 200 ppm [6]

C=CCN(c1ncnc2c(C(F)(F)F)cc(C(F)(F)F)cc12)C(C)c1ncnn1-c1ccc(C#N)cn1 (stereo not drawn) [P.260, 6-[5-[1-[allyl-[6,8-bis(trifluoromethyl)quina-zolin-4-yl]amino]ethyl]-1,2,4-triazol-1-yl]pyridine-3-carbonitrile]
≥ 80%: percent control (mortality or growth inhibition) at 200 ppm [1, 8] | percent control (mortality, anti-feedant effect or growth inhibition) at 200 ppm [2, 9] | percent control (mortality or growth inhibition) at 200 ppm [3, 10] | percent control (mortality or growth inhibition) at 200 ppm [4, 11] | mortality at 12 ppm [5, 12] | percent control (mortality, anti-feedant effect or growth inhibition) at 200 ppm [6, 13]

CC(Nc1ncnc2c(C(F)(F)F)cc(Cl)cc12)c1ncnn1-c1ncccn1 (stereo not drawn) [P.40, 6-chloro-N-[1-(2-pyrimidin-2-yl-1,2,4-triazol-3-yl)ethyl]-8-(trifluoromethyl)quinazolin-4-amine]
≥ 80%: percent control (mortality or growth inhibition) at 200 ppm [1, 8] | percent control (mortality, anti-feedant effect or growth inhibition) at 200 ppm [2, 9] | percent control (mortality or growth inhibition) at 200 ppm [3, 10] | percent control (mortality or growth inhibition) at 200 ppm [4, 11] | mortality at 12 ppm [5, 12] | percent control (mortality, anti-feedant effect or growth inhibition) at 200 ppm [6, 13]
